The values below come from patent US20220331433A1, “NUCLEIC ACID-MEDIATED DELIVERY OF THERAPEUTICS” (The Regents of the University of California, priority 2019, published 2022).

“Also recorded” adds a separate entry of the source. Like-named read-outs stand apart in the source and are kept apart here.

The nature of data set [1]: Stability of DNA in water and PBS (TEM). The settings on record: [DNA] 6 μg/mL. It is filed as physicochemical. As for the experimental part:
Stability of DNA in water and PBS. DNA was prepared in PBS and diluted in H2O and then imaged. Final [DNA]=6 μg/mL.

Data set [2] is described as follows: DNA degradation in 10% FBS/PBS (agarose gel). The class given is physicochemical. Conditions: 37° C., 0 to 48 h, [DNA] 100 μg/mL. The method, then: DNA Degradation in 10% FBS/PBS. A 1% (w/v) agarose gel in 1×Tris Acetate EDTA (TAE) containing 1 μg/mL ethidium bromide was used to characterize the degradation of DNA in 10% FBS/PBS over 48 hours. DNA was incubated with serum-containing PBS at 37° C. over time. Samples were stored in −20° C. to stop enzymatic degradation from nucleases at each time point. The concentration of DNA=100 μg/mL. The gel was run at 100 V for 40 minutes and DNA was imaged on a UV transilluminator (Fotodyne, Heartland, Wis.).
DNA Degradation in 10% FBS/PBS. To determine the stability of the DNA to serum exposure, DNA (100 μg/mL) was incubated with serum-containing PBS at 37° C. over a time period of 0 to 48 h. Samples were stored in −20° C. to stop enzymatic degradation from nucleases at each time point. […] It is likely that the nucleases in the serum-containing media are contributing to the degradation of DNA. It is possible to infer a delayed release of DOX due to this degradation of DNA overtime in 10% FBS.

Data set [3] relates to EL4 cells. Put plainly: EL4 cytotoxicity, MTT assay. It is filed as cell-based. As for the experimental part:
EL4 Cytotoxicity. EL4 cells (ATCC, Rockville, Md.) were plated at 10 k cells per well in a 96-well plate. The plated cells were treated in triplicate for 24, 48, or 72 hours with a range of concentrations of 0.001 μg/mL DOX or DOX equivalent to 10 μg/mL, followed by cellular viability analysis via MTT assay. Cells were incubated at 37° C., 5% CO2, and 100% humidity.
EL4 cells were treated in triplicate for 24, 48, and 72 hours with a range of concentrations, followed by cellular viability analysis via an MTT assay.

Data set [4] in a line: Pharmacokinetics in EL4-challenged C57BL/6 mice. The class given is in vivo. The method, then: Pharmacokinetics. […] Blood samples were collected from the saphenous vein of the mice at each time point, spun down in a serum collection tube, and the resultant supernatant was analyzed in acidified alcohol for DOX fluorescence using the Multi-Mode reader.
The mice were 6-8-week-old female mice.

A short description of data set [5]: Complete blood count and liver enzyme panel. It is filed as in vivo. The settings on record: 20 mg/kg DOX or DOX equiv., tail vein, 24 h p.i., C57BL/6 mice, n=3. As for the experimental part:
Hematotoxicity and Liver Enzyme Panel. The mice used in this study were 6-12 week-old female C57BL/6/027 mice (Charles River Laboratories, Wilmington, Mass., USA). The mice were administered treatment via tail vein injection. After 24 h, complete blood count (CBC), and liver enzyme levels were measured. Blood for CBC was collected by saphenous vein collection, mixed with EDTA, and analyzed with a hematology analyzer for white blood cells (WBC), red blood cells (RBC), hemoglobin (Hgb), platelets (Plt) and hematocrit (HCT). For the liver enzyme panel, serum was isolated from blood and sent to IDEXX Laboratories, Inc. (Westbrook, Me.) for alkaline phosphatase (ALP), aspartate aminotransferase (AST), alanine aminotransferase (ALT), and total bilirubin analysis.
Complete blood count and liver enzyme panel of DOX/DNA and DOX. A complete blood count and liver enzyme panel were conducted in C57BL/6 mice treated with 20 mg/kg DOX, 20 mg/kg DOX equiv. of DOX/DNA, PBS, or 120 mg/kg DNA, n=3. […] After 24 h p.i., complete blood count (CBC), and liver enzyme levels were measured. Blood was collected by saphenous vein collection, mixed with EDTA, and analyzed with a hematology analyzer for white blood cells (WBC), red blood cells (RBC), hemoglobin (Hgb), platelets (Plt) and hematocrit (HCT). […]

Data set [6] has as its system EL4 cells. Put plainly: Endocytosis inhibition, EL4 cellular uptake. It is filed as cell-based. Conditions: inhibitors CPZ, Filipin III, EIPA, NaN3, PS2 or 4° C., 1 hour treatment. The method, then:
Endocytosis Inhibition. EL4 DOX uptake from DOX or DOX/DNA treatment after exposure to inhibitors NaN3 (120 mM), PS2 (12 μg/mL), Filipin III (5 μg/mL), CPZ (20 μM), EIPA […], or 4° C. was measured using flow cytometry or spectrofluorimetry. Briefly, cells were primed for 15 minutes with the inhibitors before being treated for 1 hour with DOX or DOX/DNA. Cells containing DOX or DOX/DNA were counted with the flow cytometer using yellow fluorescence, and cells containing DOX/DNA were counted using spectrofluorimetry. Fluorescence was measured using a Guava® easyCyte™ Flow Cytometer (Millipore Sigma, Burlington, Mass.) or the Multi-Mode reader (Biotek Instruments, Winooski, Vt.).
Endocytosis inhibition and the effect on DOX/DNA and DOX uptake. The effect of inhibitors CPZ (20 μM), Fillipin III […], EIPA (20 μM), and various combinations thereof, or 4° C. on EL4 cellular uptake was evaluated for DOX/DNA (see FIG. 22). Chlorpromazine (CPZ) is a clathrin-dependent pathway inhibitor. […] The concentrations chosen for the assay were determined using a dose-response assay for each inhibitor.
DOX uptake by EL4 cells was tested with inhibitors: NaN3 (120 mM), PS2 (12 μg/mL), Filipin III (5 μg/mL), EIPA (20 μM), and 4° C. Uptake was measured using flow cytometry. […] Cells containing DOX were counted with the flow cytometer using yellow fluorescence.

The nature of data set [7]: Titration of DOX, DNA and DOX/DNA. The class given is physicochemical. The method, then: Titration of DOX, DNA, and DOX/DNA using a weak base. DOX, DNA or DOX/DNA were made in water at an initial volume of 1 mL. DOX equiv. at 600 μg/mL. The pH was then brought down below 2 with 1 M HCl, then the pH was adjusted higher using small volumes (100 μL or 20 μL) of 0.1 M NaOH.

Data set [8] is described as follows: Acute toxicity survival in C57BL/6 mice. Conditions: 40 mg/kg dose, n=7.

Deoxyribonucleic acid [DNA]: the “Stability in water or PBS” value in data set [1] is “largely stable”. The Degradation in serum result in data set [2] was “degraded serum in a time dependent manner; also recorded: degraded overtime”.
Turning to Doxorubicin, the 50% inhibitory concentration (IC50) in the data set on EL4 cells [3] (24 h incubation) turned out to be 0.313 µg/mL; in the data set on EL4 cells [3] (24 h incubation, read-out: IC50), 576 nM; with EL4 cells [3] (48 h incubation), 0.093 µg/mL; with EL4 cells [3] (72 h incubation) it was 0.048 µg/mL. Moreover, the “Blood circulation residence half-life T1/2” value in data set [4] (20 mg/kg DOX or DOX equiv. i.v., n=3) is 3 min. In addition, the “Time of absorption by the tissue” value in data set [4] (20 mg/kg i.v.) was roughly 15 min. Also, the “Effect on circulating blood cells and liver enzymes” value in data set [5] was “greater impact”. Further, in the data set on EL4 cells [6], the Cellular uptake pathway result was “primarily via membrane fusion”. The “pKa (amine)” value in data set [7] worked out at 8.46. The “pKa (estimated)” value in data set [7] is listed as 9.46. In data set [7], the “pKa (phenol)” value is 7.34. Besides, the Acute toxicity entry in data set [8] was “acute toxicity (cardiac arrest)”.
